# Reference: the supplement of paper PMC4862054
# How the values were obtained:
# Conditions in all cases: incubation time: 72 h
# HCC1143 [1] = assay: normalised response (% of control), CellTiter-Glo; higher = more viable cells (100 = DMSO, 0 = benzethonium chloride kill control)
# Outline: (§1)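 Plates were normalised with 0.1 % DMSO as 100 and a positive kill control as 0. Breast cancer cell lines in 20 µl suspension had been seeded into 384-well plates with compound at 5 concentrations in 10-fold steps over a compound-specific 10,000-fold range, incubated 72 h, and read for CellTox Green fluorescence (485/520 nm) followed by CellTiter-Glo luminescence. Each value is the normalised signal at a single concentration.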
# CAL-85-1 [2] = assay: as above
# Outline: as §1
# MDA-MB-436 [3] = assay: as above
# Outline: as §1
# MDA-MB-468 [4] = assay: as above
# Outline: as §1
# HDQ-P1 [5] = assay: as above
# Outline: as §1
# MFM-223 [6] = assay: as above
# Outline: as §1
# HCC1599 [7] = assay: as above
# Outline: as §1
# CAL-148 [8] = assay: as above
# Outline: as §1
# BT-549 [9] = assay: as above
# Outline: as §1
# CAL-51 [10] = assay: as above
# Outline: as §1
# HCC1937 [11] = assay: as above
# Outline: as §1
# Hs578T [12] = assay: as above
# Outline: as §1
# DU-4475 [13] = assay: as above
# Outline: as §1
# MDA-MB-453 [14] = assay: as above
# Outline: as §1
# MDA-MB-231 [15] = assay: as above
# Outline: as §1
# SK-BR-3 [16] = assay: as above
# Outline: as §1
# CAL-120 [17] = assay: as above
# Outline: as §1
# BT-474 [18] = assay: as above
# Outline: as §1
# MCF-10A = assay: as above
# Outline: as §1
# HCC1143 [19] = assay: normalised viability (% of control), CellTiter-Blue; higher = more viable cells (100 = DMSO, 0 = benzethonium chloride kill control)
# Procedure: (§2)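 DSRT, CellTiter-Blue viability, 72 h incubation. Signal is normalised to DMSO and benzethonium chloride controls. Value is the normalised response at dose 1.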
# CAL-85-1 [20] = assay: as above
# Procedure: as §2
# MDA-MB-436 [21] = assay: as above
# Procedure: as §2
# MDA-MB-468 [22] = assay: as above
# Procedure: as §2
# HDQ-P1 [23] = assay: as above
# Procedure: as §2
# MFM-223 [24] = assay: as above
# Procedure: as §2
# HCC1599 [25] = assay: as above
# Procedure: as §2
# CAL-148 [26] = assay: as above
# Procedure: as §2
# BT-549 [27] = assay: as above
# Procedure: as §2
# CAL-51 [28] = assay: as above
# Procedure: as §2
# HCC1937 [29] = assay: as above
# Procedure: as §2
# Hs578T [30] = assay: as above
# Procedure: as §2
# DU-4475 [31] = assay: as above
# Procedure: as §2
# MDA-MB-453 [32] = assay: as above
# Procedure: as §2
# MDA-MB-231 [33] = assay: as above
# Procedure: as §2
# SK-BR-3 [34] = assay: as above
# Procedure: as §2
# CAL-120 [35] = assay: as above
# Procedure: as §2
# BT-474 [36] = assay: as above
# Procedure: as §2
Structure (SMILES),normalised response (HCC1143 [1]),normalised response (CAL-85-1 [2]),normalised response (MDA-MB-436 [3]),normalised response (MDA-MB-468 [4]),normalised response (HDQ-P1 [5]),normalised response (MFM-223 [6]),normalised response (HCC1599 [7]),normalised response (CAL-148 [8]),normalised response (BT-549 [9]),normalised response (CAL-51 [10]),normalised response (HCC1937 [11]),normalised response (Hs578T [12]),normalised response (DU-4475 [13]),normalised response (MDA-MB-453 [14]),normalised response (MDA-MB-231 [15]),normalised response (SK-BR-3 [16]),normalised response (CAL-120 [17]),normalised response (BT-474 [18]),normalised response (MCF-10A),normalised viability (HCC1143 [19]),normalised viability (CAL-85-1 [20]),normalised viability (MDA-MB-436 [21]),normalised viability (MDA-MB-468 [22]),normalised viability (HDQ-P1 [23]),normalised viability (MFM-223 [24]),normalised viability (HCC1599 [25]),normalised viability (CAL-148 [26]),normalised viability (BT-549 [27]),normalised viability (CAL-51 [28]),normalised viability (HCC1937 [29]),normalised viability (Hs578T [30]),normalised viability (DU-4475 [31]),normalised viability (MDA-MB-453 [32]),normalised viability (MDA-MB-231 [33]),normalised viability (SK-BR-3 [34]),normalised viability (CAL-120 [35]),normalised viability (BT-474 [36])
CN[C@@H]1C[C@H]2O[C@@](C)([C@@H]1OC)n1c3ccccc3c3c4c(c5c6ccccc6n2c5c31)C(=O)N[C@H]4O [UCN-01] (1 nM),98.7%,102%,100%,103%,99%,102%,100%,105%,95.5%,78.4%,90.9%,98%,109%,99.8%,103%,109%,91.5%,97.5%,102%,95.7%,87.8%,111%,99.8%,69.6%,108%,118%,102%,92%,98.9%,82.1%,106%,128%,99.3%,92%,104%,82.9%,99.2%
CC1(C)NC(=O)N(c2ccc([N+](=O)[O-])c(C(F)(F)F)c2)C1=O [Nilutamide] (1 nM),101%,100%,102%,106%,101%,103%,109%,111%,103%,93.2%,98.4%,101%,105%,105%,97.4%,111%,99.1%,108%,106%,99.5%,96%,123%,108%,125%,100%,85.1%,103%,95.1%,100%,114%,126%,115%,112%,131%,99.1%,86.6%,95.7%
C#Cc1cccc(Nc2ncnc3cc(OCCOC)c(OCCOC)cc23)c1 [Erlotinib] (1 nM),101%,102%,131%,93%,100%,105%,97.1%,103%,106%,107%,104%,106%,106%,116%,101%,100%,96.1%,101%,115%,86.6%,95.3%,99.6%,107%,102%,98.8%,80.1%,97.8%,111%,98.2%,102%,84%,89%,99.8%,107%,108%,85%,95%
C=C(c1ccc(C(=O)O)cc1)c1cc2c(cc1C)C(C)(C)CCC2(C)C [Bexarotene] (1 nM),99.7%,99.7%,89.5%,109%,102%,97.5%,98.9%,107%,103%,105%,100%,93.2%,99.6%,111%,107%,102%,99.6%,103%,99.8%,110%,102%,82.5%,105%,84.7%,99.6%,101%,105%,88.7%,94.1%,108%,111%,82.5%,83.5%,86.1%,94.8%,115%,81.1%
